Where two headings read alike, the source gives them in different places.
Tested on: murine fibroblasts (NIH3T3) over-expressing human IGF-1 receptor
Test: Inhibition of IGF-stimulated cell proliferation (BrdU incorporation), Test (c)
Assay type: cell-based
Procedure: The construction of murine fibroblasts (NIH3T3) over-expressing human IGF-1 receptor has been described by Lammers et al (EMBO J, 8, 1369-1375, 1989). These cells show a proliferative response to IGF-I which can be measured by BrdU incorporation into newly synthesised DNA. Compound potency was determined as causing inhibition of the IGF-stimulated proliferation in the following assay:
Compounds are initially dissolved in DMSO to 10 mM, followed by dilutions in DMEM+1% FCS+glutamine to give a range from […] in 1-0.00045% DMSO final concentration in assay well.
Exponentially growing NIH3T3/IGFR cells were harvested and seeded in complete growth medium into a flat-bottomed 96 well tissue culture grade plate (Costar 3525) at 1.2×10^4 cells per well in a volume of 100 μl.
Growth medium was carefully removed from each well using a multi-channel pipette. Wells were carefully rinsed three times with 200 μl with HBSS. […] of starvation medium was added to each well and the plate was re-incubated for 24 hours.
50 μl of a 4× concentrate of test compound was added to appropriate wells. Cells were incubated for 30 minutes with compound alone before the addition of IGF. […]
The incorporation of BrdU in the cells (after a 4 h incorporation period) was assessed using the BrdU Cell Proliferation Elisa according to the manufacturer's protocol.

SMILES | IC50 [µM] | IC50 (Mus musculus) [µM]
Cc1cc(Nc2nc(N3C[C@H](O)C[C@H]3c3cc(-c4ccccn4)no3)ncc2Cl)n[nH]1 [Example 3, 5-Chloro-2-{(2S4R)-4-hydroxy-2-[3-(pyrid-2-yl)isoxazol-5-yl]pyrrolidin-1-yl}-4-(5-methyl-1H-pyrazol-3-ylamino)pyrimidine] | 0.8 | –
Cc1cc(Nc2nc(N3C[C@@H](O)C[C@H]3c3cc(-c4ccccn4)no3)ncc2Cl)n[nH]1 [Example 4, 5-Chloro-2-[(2S,4S)-4-hydroxy-2-[3-(pyrid-2-yl)isoxazol-5-yl]pyrrolidin-1-yl]-4-(5-methyl-1H-pyrazol-3-ylamino)pyrimidine] | – | 0.93
